In brackets after ≈: the same amount, converted by molar mass. Where two headings read alike, the source gives them in different places.
What was measured:
SJSA-1 cells = assay: p53, p21 and MDM2 protein levels by western blotting in SJSA-1; type: cell-based; details: SJSA-1, 24 h treatment
Procedure: This osteosarcoma cell line with a known functional p53 pathway was used as a second model for these experiments. Cells were treated as described above and samples analysed by western blotting as indicated. Similar observations were made with stabilisation of p53, p21 induction and MDM2 decreased levels in a concentration dependent manner.
p53, p21 and MDM2 Protein Levels

HCT116 cells = assay: p53, p21 and MDM2 protein levels by western blotting in HCT116; type: cell-based; details: HCT116, 24 h treatment
Kinetic solubility assay = type: physicochemical; details: PBS buffer pH 7.4 with 2% DMSO, aqueous buffer, kinetic from dmso stock, PBS buffer pH 7.4, 2% DMSO, RT, read-out: KSol
Procedure: Samples were prepared by adding 4 μL of the 10 mM compound DMSO stock solutions into 196 μL of PBS buffer pH 7.4 in the 96 well filter plates, yielding a compound concentration of 200 μM and 2% DMSO. The PBS buffer pH7.4 was prepared by Genentech media lab. Filter plates were sealed with aluminum sealing film and shaken at RT at 1000 rpm. After 24 h, the solutions were filtered into a clean 96 well plates utilizing a vacuum manifold. After filtration, some precipitate was often observed at the bottom of the filtration plate wells. Most of the precipitates appeared to be crystalline under a polarizing light microscope. […]
Samples were detected and analyzed using UV 254 nm and CLND. UV 254 nm is used primarily to confirm the sample purity but in rare cases, is also used to quantify the concentration of compounds with no nitrogens, where additional work was done to create a compound specific calibration curve. […] Sample quantification was accomplished by CLND peak intensity, the calibration curve, and the number of nitrogen contained in the compound. One calibration curve of caffeine was used for solubility quantitative determination. […] The number of nitrogens in a compound used for this quantification needs to be corrected for the actual configuration of the nitrogen in the compound. […]

USP7 = USP7 (Homo sapiens (Human), UniProt Q93009); assay: USP7 fluorescence polarisation (FP) biochemical assay, ubiquitin-Lys-TAMRA substrate; details: read-out: USP7 IC50
Sequence of USP7 (Q93009 whole entry): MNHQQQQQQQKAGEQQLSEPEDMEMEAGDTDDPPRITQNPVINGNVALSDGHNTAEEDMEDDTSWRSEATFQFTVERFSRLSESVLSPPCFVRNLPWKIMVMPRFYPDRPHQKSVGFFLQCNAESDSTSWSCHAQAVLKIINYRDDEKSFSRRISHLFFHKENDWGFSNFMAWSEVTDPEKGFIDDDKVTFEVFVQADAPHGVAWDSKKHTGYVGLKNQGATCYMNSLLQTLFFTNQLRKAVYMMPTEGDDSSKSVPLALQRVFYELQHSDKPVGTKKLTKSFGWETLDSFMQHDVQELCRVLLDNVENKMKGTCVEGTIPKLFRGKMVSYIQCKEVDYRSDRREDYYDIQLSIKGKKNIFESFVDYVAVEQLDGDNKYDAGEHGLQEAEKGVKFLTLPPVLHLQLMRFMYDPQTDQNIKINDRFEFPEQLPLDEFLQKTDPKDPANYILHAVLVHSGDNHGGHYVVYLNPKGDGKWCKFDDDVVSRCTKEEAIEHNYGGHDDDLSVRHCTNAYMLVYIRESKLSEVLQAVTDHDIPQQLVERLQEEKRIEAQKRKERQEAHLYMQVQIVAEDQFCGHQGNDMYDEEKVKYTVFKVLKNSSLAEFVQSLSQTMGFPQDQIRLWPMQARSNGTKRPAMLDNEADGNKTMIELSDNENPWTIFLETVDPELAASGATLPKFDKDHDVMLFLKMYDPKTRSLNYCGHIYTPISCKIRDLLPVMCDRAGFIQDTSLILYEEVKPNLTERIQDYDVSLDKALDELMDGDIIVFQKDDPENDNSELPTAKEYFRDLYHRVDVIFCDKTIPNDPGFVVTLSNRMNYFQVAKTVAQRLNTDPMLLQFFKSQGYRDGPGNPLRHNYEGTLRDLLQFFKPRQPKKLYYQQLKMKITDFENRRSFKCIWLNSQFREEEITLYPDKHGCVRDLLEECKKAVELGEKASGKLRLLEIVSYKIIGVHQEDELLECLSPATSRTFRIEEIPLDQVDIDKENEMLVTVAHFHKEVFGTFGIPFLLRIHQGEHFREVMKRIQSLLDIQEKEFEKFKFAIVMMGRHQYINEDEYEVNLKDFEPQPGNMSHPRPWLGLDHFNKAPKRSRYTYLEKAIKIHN
Procedure, shortened: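 Full-length His6-USP7 (2.5 nM) incubated ± inhibitor (8-point dilutions, 200 to 0.1 μM before addition) in 50 mM HEPES pH 7.2, 150 mM NaCl, 0.5 mM EDTA, 5 mM DTT, 0.05% BSA, 0.05% CHAPS. Ubiquitin-Lys-TAMRA cleavage followed by FP (ex 530/em 575 nm) every 15 min for 1.5 h; normalised to no-compound control.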

LNCaP cells = assay: LNCaP proliferation assay (CellTiter-Glo); type: cell-based; details: Homo sapiens, Table 1, cell viability after 168 h
Procedure: LNCaP cells from ATCC, were seeded in 96 well plate format (typically 2500 cells/well) in their growth media (RPMI, Life Technologies #52400-025+10% Fetal Calf Serum, Life Technologies #10500-064) and treated after 24 h with increasing concentration of compound from 0 to 30 μM. Cell viability was assessed after 168 h by CellTiter-Glo® as recommended by the manufacturer's instructions (Promega). Analysis and EC50 values were derived using GraphPadPrism.

[1] = Table 4, biochemical assay, average of at least duplicate experiments
[2] = Table 1, R9a = H versus R9a = Cl

IC50 (USP7; [1]) [nM] | IC50 (USP7; [2]) [nM] | EC50 (LNCaP cells) [nM] | SMILES | further results
– | – | – | C[C@H](CC(=O)N1CCC(O)(Cn2cnc3c(-c4cccc(N)c4)n(C)nc3c2=O)CC1)c1ccccc1 [Example 29, (R)-3-(3-Aminophenyl)-6-((4-hydroxy-1-(3-phenylbutanoyl)piperidin-4-yl)methyl)-2-methyl-2H-pyrazolo[4,3-d]pyrimidin-7(6H)-one] | p53, p21 and MDM2 protein levels (SJSA-1 cells): dose-dependent p53 stabilisation, p21 induction and concomitant decrease in MDM2 levels; p53, p21 and MDM2 protein levels (HCT116 cells): dose-dependent p53 stabilisation, p21 induction and concomitant decrease in MDM2 levels
250 to 999 | – | – | CC1(C(=O)N2CCC(O)(Cn3cnc4c(cc(Cl)n4-c4ccccc4)c3=O)CC2)CC1 [Example 200, 6-Chloro-3-((4-hydroxy-1-(1-methylcyclopropanecarbonyl)piperidin-4-yl)methyl)-7-phenyl-3H-pyrrolo[2,3-d]pyrimidin-4(7H)-one] | solubility kinetic at 24 h (Kinetic solubility assay): 173 µM (≈ 76.3 µg/mL)
< 250 | 220 | 22 | CC1(C(=O)N2CCC(O)(Cn3cnc4c(cc(Cl)n4-c4ccc(Cl)cc4)c3=O)CC2)CC1 [Example 203, 6-Chloro-7-(4-chlorophenyl)-3-((4-hydroxy-1-(1-methylcyclopropanecarbonyl)piperidin-4-yl)methyl)-3H-pyrrolo[2,3-d]pyrimidin-4(7H)-one] | –
< 250 | 140 | 55 | Cn1cc(-c2cccc(-n3c(Cl)cc4c(=O)n(CC5(O)CCN(C(=O)C6(C)CC6)CC5)cnc43)c2)cn1 [Example 212, 6-Chloro-3-((4-hydroxy-1-(1-methylcyclopropanecarbonyl)piperidin-4-yl)methyl)-7-(3-(1-methyl-1H-pyrazol-4-yl)phenyl)-3H-pyrrolo[2,3-d]pyrimidin-4(7H)-one] | –
< 250 | – | – | CC1(C(=O)N2CCC(O)(Cn3cnc4c(cc(Cl)n4-c4ccc(CN)cc4)c3=O)CC2)CC1 [Example 241, 7-(4-(Aminomethyl)phenyl)-6-chloro-3-((4-hydroxy-1-(1-methylcyclopropane-1-carbonyl)piperidin-4-yl)methyl)-3,7-dihydro-4H-pyrrolo[2,3-d]pyrimidin-4-one] | –
< 250 | – | – | NCc1ccc(-n2c(Cl)cc3c(=O)n(CC4(O)CCN(C(=O)c5cnc(C6CC6)o5)CC4)cnc32)cc1 [Example 242, 7-(4-(Aminomethyl)phenyl)-6-chloro-3-((1-(2-cyclopropyloxazole-5-carbonyl)-4-hydroxypiperidin-4-yl)methyl)-3,7-dihydro-4H-pyrrolo[2,3-d]pyrimidin-4-one] | –
1000 to 200000 | – | – | C[C@H](CC(=O)N1CCC(O)(Cn2cnc3c(-c4ccc(C(=O)O)cc4)n(C)nc3c2=O)CC1)c1ccccc1 [Example 243, (R)-4-(6-((4-Hydroxy-1-(3-phenylbutanoyl)piperidin-4-yl)methyl)-2-methyl-7-oxo-6,7-dihydro-2H-pyrazolo[4,3-d]pyrimidin-3-yl)benzoic Acid] | –
1000 to 200000 | – | – | C[C@H](CC(=O)N1CCC(O)(Cn2cnc3c(-c4cccc(C(=O)O)c4)n(C)nc3c2=O)CC1)c1ccccc1 [Example 244, (R)-3-(6-((4-Hydroxy-1-(3-phenylbutanoyl)piperidin-4-yl)methyl)-2-methyl-7-oxo-6,7-dihydro-2H-pyrazolo[4,3-d]pyrimidin-3-yl)benzoic Acid] | –
1000 to 200000 | – | – | Cn1nc2c(=O)n(CC3(O)CCN(C(=O)C4(C)CC4)CC3)cnc2c1-c1ccc(C(=O)O)cc1 [Example 245, 4-(6-((4-Hydroxy-1-(1-methylcyclopropane-1-carbonyl)piperidin-4-yl)methyl)-2-methyl-7-oxo-6,7-dihydro-2H-pyrazolo[4,3-d]pyrimidin-3-yl)benzoic Acid] | –

SMILES | IC50 (USP7; [1]) [nM] | IC50 (USP7; [2]) [nM] | EC50 (LNCaP cells) [nM] | further results
CC1(C(=O)N2CCC(O)(Cn3cnc4c(cc(Cl)n4-c4ccc5c(c4)OCO5)c3=O)CC2)CC1 [Example 202, 7-(Benzo[d][1,3]dioxol-5-yl)-6-chloro-3-((4-hydroxy-1-(1-methylcyclopropanecarbonyl)piperidin-4-yl)methyl)-3H-pyrrolo[2,3-d]pyrimidin-4(7H)-one] | 250 to 999 | 250 | 51 | –

Source: patent US10766903B2 (ALMAC DISCOVERY LIMITED, priority 2016, dated 2020)
